Assay results reported in PubChem BioAssay (NCI).
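These data come from cells grown in 96-well plates and exposed to compound for 48 hours at five concentrations. The concentration for full growth arrest is given as TGI.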

Legend:
Assay in all cases: NCI-60 cell line screen, 48 h
A549 NSCLC = tested on: A549 NSCLC
HT29 colon = tested on: HT29 colon
HL-60(TB) leukemia = tested on: HL-60(TB) leukemia
DU-145 prostate = tested on: DU-145 prostate
EKVX NSCLC = tested on: EKVX NSCLC
SN12C renal = tested on: SN12C renal
KM12 colon = tested on: KM12 colon
SK-MEL-28 melanoma = tested on: SK-MEL-28 melanoma
SW-620 colon = tested on: SW-620 colon
MDA-MB-231 breast = tested on: MDA-MB-231 breast
786-0 renal = tested on: 786-0 renal
ACHN renal = tested on: ACHN renal
RPMI-8226 leukemia = tested on: RPMI-8226 leukemia
HCT-15 colon = tested on: HCT-15 colon
OVCAR-5 ovarian = tested on: OVCAR-5 ovarian
K-562 leukemia = tested on: K-562 leukemia
SK-MEL-2 melanoma = tested on: SK-MEL-2 melanoma
NCI/ADR-RES ovarian = tested on: NCI/ADR-RES ovarian
RXF 393 renal = tested on: RXF 393 renal

SMILES	TGI (A549 NSCLC) [µM]	TGI (HT29 colon) [µM]	TGI (HL-60(TB) leukemia) [µM]	TGI (DU-145 prostate) [µM]	TGI (EKVX NSCLC) [µM]	TGI (SN12C renal) [µM]	TGI (KM12 colon) [µM]	TGI (SK-MEL-28 melanoma) [µM]	TGI (SW-620 colon) [µM]	TGI (MDA-MB-231 breast) [µM]	TGI (786-0 renal) [µM]	TGI (ACHN renal) [µM]	TGI (RPMI-8226 leukemia) [µM]	TGI (HCT-15 colon) [µM]	TGI (OVCAR-5 ovarian) [µM]	TGI (K-562 leukemia) [µM]	TGI (SK-MEL-2 melanoma) [µM]	TGI (NCI/ADR-RES ovarian) [µM]	TGI (RXF 393 renal) [µM]
Cc1nn(C(=O)Cc2ccccc2)c2c1C(c1ccc(N(C)C)cc1)SC(N)=N2 (centres undefined)	> 100	> 100	> 100	> 100	> 100	> 100	> 100	> 100	> 100	> 100	> 100	> 100	> 100	> 100					
CCOC(=O)C(Cc1cn(S(=O)(=O)c2ccccc2)c2ccccc12)(NC(C)=O)C(=O)OCC	> 100	> 100	41.5				> 100	> 100	> 100		> 100	> 100	44.7	> 100	> 100	> 100	80.3		
COc1cc2c(cc1OC)CCc1cc(OC)c(OC)cc1CC2	> 100	> 100		> 100	> 100	> 100	> 100	> 100	> 100	> 100	> 100	> 100		> 100	> 100	> 100	> 100	> 100	
C=CCc1cc(-c2cc(CC=C)c(O)c(CNCCCl)c2)cc(CNCCCl)c1O	76.1	36.5	44.8			44.6	31.4	32.9	44.3		> 100	46.2	61.9	31.1		52.1	35.2		
CCn1c2ccccc2n2c(=O)c3c(c(C#N)c12)CCCC3	> 100	> 100	> 100	> 100	> 100	> 100	> 100	> 100	> 100	> 100	> 100	> 100		> 100	> 100	> 100	> 100	> 100	
N#Cc1nc(C2=C(Cl)c3ccccc3OC2)[nH]c1C#N	> 100	41.5	70.7		> 100	> 100	71.9	56.8	> 100		> 100	> 100	61	> 100	> 100	> 100		> 100	38.8
C=C1CCC23CC(CC[C@@H]2[C@@]12C[C@@H](c1ccoc1)OC2=O)OC3=O (some centres undefined)	> 100	> 100	> 100		> 100	> 100	> 100		> 100		> 100	> 100	> 100	> 100	> 100	> 100	> 100		
Cc1ccc(-c2c3nc(c(-c4ccc(C)cc4)c4ccc([nH]4)c(-c4ccc(OCC5COC(C)(C)O5)cc4)c4nc(c(-c5ccc(C)cc5)c5ccc2[nH]5)C=C4)C=C3)cc1 (centres undefined)	> 31.6	> 31.6		> 31.6	> 31.6	> 31.6	> 31.6	> 31.6	> 31.6	> 31.6	> 31.6	> 31.6	> 100	> 31.6	> 31.6		> 31.6	> 31.6	
